# Tests used:
# ethanol induced ulcer = details: Robert et al., Scand. J. Gastroenterol. 1984; cited from earlier work
# [1] = system: gastric mucosal lesions produced by ethanol; test: Ethanol induced cytotoxicity (gastric mucosal lesions) in rats; type: in vivo, Male Sprague-Dawley rats; details: for ED50: Rattus norvegicus, po; for % Inhibition: oral, inhibition of lesion formation vs control
# Method: The purpose of this assay is to evaluate the effectiveness of the compounds of the present invention in preventing the formation of gastric mucosal lesions produced by ethanol. The assay is based on A. Robert, et al: Gastroenterology, 77: 433-443, 1979.
# Male Sprague-Dawley rats weighing between 120-150 grams were fasted for 24 hours prior to the experiment (water ad libitum). At least two hours before dosing, the animals were placed in individual cages with wire grid bottoms and denied access to water.
# Ethanol was administered orally at 1 mL per animal. The compounds of the present invention were dissolved in water or suspended in water with 0.5% carboxymethylcellulose and administered orally at a dose based on an appropriate standard giving ED50 to ED75 response of cytoprotective activity.
# The rats were randomly divided into groups of equal number, ordinarily 10 to a group. The rats were weighed and the individual weights were recorded. Exactly 1 hour (4 hours in the case of Example 5) prior to the administration of ethanol, the screening group was treated with the compounds of the present invention, and the control group with the vehicle. One hour after administering the ethanol the animals were sacrificed by cervical dislocation. The stomachs were removed, cut along the greater curvature and cleansed of all debris with tap water. The stomachs were set aside and kept moist with saline until the lesions were scored.
# Macroscopic lesions on the gastric mucosa were numerically graded. The final grade assigned a stomach was the sum of all the grades.
# Streaks longer than 6 mm are graded in multiples of 2 mm.
# The degree of cytotoxicity occuring in each group is represented as the mean±S.E.M.
# The mean of each treatment group was compared to the control group and expressed as the % inhibition of lesion formation.
# stress induced ulcers = test: Stress-induced gastric ulcers in rats; type: in vivo, Male rats; details: Rattus norvegicus, po; orally or parenterally, usually 15 to 45 minutes prior to stress; restraint at 4-5 °C for 3 hours, sodium taurocholate p.o.; read-out: Stress Induced Ulcer ED50
# Method: The purpose of this assay is to evaluate the effectiveness of the compounds of the present invention in preventing stress induced ulcers.
# Male rats (280-380 g) were fasted for 18 hours (water available ad libitum) prior to use in experiments. Eight to twelve rats were used per group.
# Drug solutions or suspensions were prepared in physiological saline solution. Suspensions were prepared with the aid of 0.5% carboxymethylcellulose in physiological saline solution. Drugs were administered orally or parenterally at predetermined intervals (usually 15 to 45 minutes) prior to stress.
# This test procedure is according to the method of Senay et al., Proc. Soc. Exp. Biol. Med. 124, 1221 (1967), modified to produce a more consistent ulcer incidence. After drug administration, the rats were immobilized in metallic restrainers and placed in a cold room at 4°-5° C. for 3 hours before they were killed by cervical dislocation. Each rat was given 20 mg of sodium taurocholate p.o. immediately before placing it in the restrainer. After killing the rats, the stomachs were excised and examined. Macroscopic ulcers were subjectively assigned a grade from 1 to 3 on the basis of increasing size. The number of ulcers in each size category was determined and multiplied by the respective grade; the addition of the resultant values gave the cumulative ulcer score. The average cumulative ulcer score of each treatment group was compared to that of the control group and the percent inhibition of ulcer formation as calculated. When the responses obtained were directly proportional to the doses employed, ED50 values were determined from the dose-response curves obtained.
# [2] = 10 mg/kg, 1 hour prior to ethanol
Structure (SMILES),ED50 [1],ED50 (stress induced ulcers),also measured
CC(C)[N+](C)(CCOC(=O)C1c2ccccc2Oc2ccccc21)C(C)C [propantheline bromide],–,–,protection in ethanol induced ulcer model (ethanol induced ulcer): do not protect in this model
"Fc1cccc(NC(=S)c2ccccn2)c1F [Example 10, N--(2,3-difluorophenyl)-2-pyridinecarbothioamide]",1 mg/kg,0.9 mg/kg,–
"CCN(C(=S)c1ccccn1)c1cc(F)cc(F)c1 [Example 8, N-(3,5-Difluorophenyl)-N-ethyl-2-pyridinecarbothioamide]",–,–,"% Inhibition [1, 2]: 13%"
"Fc1cccc(F)c1NC(=S)c1ccccn1 [Example 9, N-(2,6-Difluorophenyl)-2-pyridinecarbothioamide]",0.38 mg/kg,1.8 mg/kg,–
"Fc1ccc(F)c(NC(=S)c2ccccn2)c1 [Example 12, N--(2,5-difluorophenyl)-2-pyridinecarbothioamide]",6.2 mg/kg,–,–
"Fc1cccc(NC(=S)c2ccccn2)c1 [Example 4, N-(3-Fluorophenyl)-2-pyridinecarbothioamide]",1 mg/kg,–,–
"CN(C(=S)c1ccccn1)c1cccc(F)c1 [Example 6, N-(3-Fluorophenyl)-N-methyl-2-pyridinecarbothioamide]",–,–,"% Inhibition [1, 2]: 31%"
"CN(C(=S)c1ccccn1)c1cc(F)cc(F)c1 [Example 7, N-(3,5-Difluorophenyl)-N-methyl-2-pyridinecarbothioamide]",–,–,"% Inhibition ([1]; 25 mg/kg, 1 hour prior to ethanol): 40%"
"Fc1ccccc1NC(=S)c1ccccn1 [Example 5, N-(2-Fluorophenyl)-2-pyridinecarbothioamide]",–,–,"% Inhibition ([1]; 100 mg/kg, 4 hours prior to ethanol): 69%"
"Fc1ccc(NC(=S)c2ccccn2)c(F)c1 [Example 2, N-(2,4-Difluorophenyl)-2-pyridinecarbothioamide]",4.8 mg/kg,38 mg/kg,–
CN/C(=N/CCSCc1nc[nH]c1C)NC#N [cimetidine],–,–,protection in ethanol induced ulcer model (ethanol induced ulcer): do not protect in this model
"Fc1ccc(NC(=S)c2ccccn2)cc1 [Example 3, N-(4-Fluorophenyl)-2-pyridinecarbothioamide]",2.5 mg/kg,3.8 mg/kg,–

# — patent US4886821A, “2-pyridinecarbothioamides and pharmaceutical compositions comprising the same useful as anti ulcer agents” (American Home Products Corporation, priority 1987, dated 1989)
